“And” between values parts separate entries of the source, which are not always exact repeats. Equal entries are not always repeated.
The compounds below were run against T1, human type 1 glycine transporter (GlyT1) (Homo sapiens, UniProt P48067) (assay: Glycine uptake inhibition experiment ([3H]glycine uptake in T98G cells)). Details: T98G glioma cells; [3H]glycine 250 nM; 10-min pretreatment; 15 min at room temperature; read-out: glycine uptake inhibiting activity (IC50).
T1 construct: Used in the experiment were T98G cells (glioma cells) developing a human type 1 glycine transporter of (GlyT1); endogenous in cells; host or cells: T98G human glioma cells
T1 sequence (P48067 1-706): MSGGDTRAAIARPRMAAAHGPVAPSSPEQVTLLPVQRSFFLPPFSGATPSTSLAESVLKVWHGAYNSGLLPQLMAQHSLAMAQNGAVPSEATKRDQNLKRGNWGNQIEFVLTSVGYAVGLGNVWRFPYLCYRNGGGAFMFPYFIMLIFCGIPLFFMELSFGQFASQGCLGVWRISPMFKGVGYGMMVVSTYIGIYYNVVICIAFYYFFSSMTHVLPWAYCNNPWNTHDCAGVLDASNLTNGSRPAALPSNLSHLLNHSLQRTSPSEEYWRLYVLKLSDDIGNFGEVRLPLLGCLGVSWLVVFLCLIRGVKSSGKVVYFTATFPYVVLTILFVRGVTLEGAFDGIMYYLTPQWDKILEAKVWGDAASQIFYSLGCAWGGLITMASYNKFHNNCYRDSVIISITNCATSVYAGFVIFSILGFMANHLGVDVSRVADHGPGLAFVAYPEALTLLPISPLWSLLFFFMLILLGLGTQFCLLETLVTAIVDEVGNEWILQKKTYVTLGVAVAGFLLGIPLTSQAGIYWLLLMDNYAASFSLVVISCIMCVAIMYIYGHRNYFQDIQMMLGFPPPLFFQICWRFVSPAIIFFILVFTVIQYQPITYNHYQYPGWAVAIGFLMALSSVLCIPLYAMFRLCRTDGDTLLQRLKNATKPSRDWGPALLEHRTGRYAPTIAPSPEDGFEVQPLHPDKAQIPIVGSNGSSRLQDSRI
Format: cell-based
Protocol: A glycine uptake inhibition experiment was conducted in accordance with the method described in Neuron, 8, 927-935, 1992. Used in the experiment were T98G cells (glioma cells) developing a human type 1 glycine transporter of (GlyT1). The T98G cells were seeded in a 96-well plate at a density of 2.0×10^4 cells per well and cultured overnight in a CO2 incubator. The test substance was first dissolved in a 100% DMSO solution and then dissolved in a 10 mM HEPES buffer solution (pH 7.4) supplemented with 150 mM sodium chloride, 1 mM calcium chloride, 5 mM potassium chloride, 1 mM magnesium chloride, 10 mM glucose, and 0.2% bovine serum albumin. After removing the cell culture medium, the test substance was subjected to a 10-min pretreatment. Thereafter, the test substance and [^3H] glycine (final concentration: 250 nM) were added to the cells and reaction was performed at room temperature for 15 minutes. After the end of the reaction, the extracellular fluid was aspirated with a manifold to remove the excess marker glycine present outside of the cells; thereafter, the cells were lysed with an aqueous solution of 0.5 M sodium hydroxide. The glycine content in the cells was determined by measuring the radioactivity in the cell lysate with a liquid scintillation counter. With the amount of glycine uptake in the presence of 10 μM ALX5407 being referred to as the nonspecific uptake, the amount of specific uptake was calculated by subtracting the amount of nonspecific uptake from the total amount of uptake in the absence of 10 μM ALX5407. In addition, glycine uptake inhibiting activity (IC50) was calculated from an inhibition curve for the concentration of the test substance ranging from 10^−9 to 10^−5 M.
It should be noted that ALX5407 is a HCl salt of N-[(3R)-3-([1,1′-biphenyl]-4-yloxy)-3-(4-fluorophenyl)propyl]-N-methylglycine.
Incidentally, Compound 56 which is recited as 2HCl salt in the above Table 1-6 was subjected to measurement as its free form in the Glycine Uptake Inhibition Experiment.

Q: With CCCN(Cc1cc(-c2ccccc2)ccn1)C(=O)c1cn(C)cn1 [Compound 5] as the compound, how does the IC50 read?
A: ≥ 1000 nM and 1400 nM

Q: For CC(C)N(Cc1ccc(F)c(-c2ccccn2)c1)C(=O)c1cn(C)cn1 [Compound 14], which IC50 is on record?
A: 18 nM

Q: With CC(C)N(Cc1ccc(F)c(-c2cccc3ncccc23)c1)C(=O)c1cn(C)cn1 [Compound 24] as the compound, how does the IC50 read?
A: ≥ 1000 nM

Q: Cc1n[nH]c(C)c1-c1cc(CN(C(=O)c2cn(C)cn2)C(C)C)ccc1F [Compound 25] was tested. Which IC50 did it give?
A: ≥ 1000 nM

Q: With CC(C)N(Cc1ccc(F)c(-c2ncc[nH]2)c1)C(=O)c1cn(C)cn1 [Compound 29] as the compound, how does the IC50 read?
A: ≥ 1000 nM

Q: CC(C)N(Cc1ccnc(-c2ccc(OC(F)(F)F)cc2)c1)C(=O)c1cn(C)cn1 [Compound 30] was tested. Which IC50 did it give?
A: 7.3 nM

Q: CC(C)N(Cc1ccnc(-c2ccc(F)cc2)c1)C(=O)c1c[nH]cn1 [Compound 42] was tested. Which IC50 did it give?
A: ≥ 1000 nM

Q: How did the IC50 turn out when Cn1cnc(C(=O)N(CCC(F)(F)F)Cc2ccnc(-c3ccc(F)cc3)c2)c1 [Compound 52] was run?
A: ≥ 1000 nM

Q: Cc1cccc(C)c1-c1cc(CN(C(=O)c2cn(C)cn2)C(C)C)ccn1 [Compound 63] was tested. Which IC50 did it give?
A: ≥ 1000 nM

Q: For CC(C)N(Cc1ccc(F)c(-n2ccnc2)c1)C(=O)c1cn(C)cn1 [Compound 74], which IC50 is on record?
A: 15 nM

Q: Cn1cnc(C(=O)N(Cc2ccnc(-c3ccc(OC(F)(F)F)cc3)c2)C2CCC2)c1 [Compound 107] was tested. Which IC50 did it give?
A: 3.5 nM

Q: With CC(C)N(Cc1ccnc(-c2ccccc2OC(F)(F)F)c1)C(=O)c1cn(C)cn1 [Compound 111] as the compound, how does the IC50 read?
A: ≥ 1000 nM

Q: With Cn1cnc(C(=O)N(Cc2ccc(F)c(-c3ccc(F)nc3)c2)C2CCC2)c1 [Compound 120] as the compound, how does the IC50 read?
A: 8 nM

Q: For Cc1cnn(-c2cc(CN(C(=O)c3cn(C)cn3)C(C)C)ccc2F)c1 [Compound 121], which IC50 is on record?
A: 160 nM

Q: How did the IC50 turn out when Cc1cn(-c2cc(CN(C(=O)c3cn(C)cn3)C(C)C)ccc2F)c(C)n1 [Compound 132] was run?
A: ≥ 1000 nM

Q: For CC(C)N(Cc1ccnc(-c2cc(F)ccc2C(F)(F)F)c1)C(=O)c1cn(C)cn1 [Compound 137], which IC50 is on record?
A: ≥ 1000 nM

Q: CC(C)N(Cc1noc(-c2ccc(Cl)cc2)n1)C(=O)c1cn(C)cn1 [Compound 138] was tested. Which IC50 did it give?
A: ≥ 1000 nM

Q: Which IC50 does the source give for CC(C)N(Cc1ccc(F)c(-c2ccc(F)nc2)c1)C(=O)c1c[nH]cn1 [Compound 141] here?
A: ≥ 1000 nM

Q: With Cc1cn(-c2cc(CN(C(=O)c3cn(C)cn3)C(C)C)ccc2F)cn1 [Compound 143] as the compound, how does the IC50 read?
A: 64 nM

Q: How did the IC50 turn out when CC(C)N(Cc1ccnc(-c2ccc(OC(F)(F)F)cc2)c1)C(=O)c1c[nH]cn1 [Compound 146] was run?
A: ≥ 1000 nM

Q: How did the IC50 turn out when CC(c1ccnc(-c2ccc(F)cc2)c1)N(C(=O)c1cn(C)cn1)C1CCC1 (stereo not drawn) [Compound 153] was run?
A: 30 nM

Q: Which IC50 does the source give for Cn1cnc(C(=O)N(Cc2csc(-c3ccc(OC(F)(F)F)cc3)n2)C2CCC2)c1 [Compound 155] here?
A: 5.8 nM

Q: With Cn1cnc(C(=O)N(Cc2nc(-c3ccc(OC(F)(F)F)cc3)no2)C2CCC2)c1 [Compound 160] as the compound, how does the IC50 read?
A: 330 nM

Q: With Cn1cnc(C(=O)N(Cc2ccc(F)c(-c3ccc(N4CCCC4)nc3)c2)C2CCC2)c1 [Compound 161] as the compound, how does the IC50 read?
A: 12 nM

Q: Cn1cnc(C(=O)N(Cc2ccc(F)c(-c3cccnc3C(F)(F)F)c2)C2CCOCC2)c1 [Compound 168] was tested. Which IC50 did it give?
A: ≥ 1000 nM

Q: With Cn1cnc(C(=O)N(Cc2ccnc(-c3cc(F)c(F)cc3F)c2)C2CCC2)c1 [Compound 191] as the compound, how does the IC50 read?
A: 16 nM

Q: For Cn1cnc(C(=O)N(Cc2ccc(F)c(-c3cc(C(F)(F)F)ncn3)c2)C2CCC2)c1 [Compound 208], which IC50 is on record?
A: 14 nM

Q: With Cn1cnc(C(=O)N(Cc2ccnc(-c3ccc(F)c(OC(F)F)c3)c2)C2CCC2)c1 [Compound 213] as the compound, how does the IC50 read?
A: 3.7 nM

What follows are compounds tested against T2, P-glycoprotein (P-gp), Human MDR1 (Homo sapiens, UniProt P08183) (assay: Test for recognizability of P-gp substrate (LLC-GAS-COL 300 cells, Transwell)). Details: 10 μM; LLC-GAS-COL 300 cells (Human MDR1 in LLC-PK1); criteria of Nature Reviews Drug Discovery (2010) 9, 215-236.
T2 construct: expressed in transfected cells; host or cells: LLC-GAS-COL 300 cells (derived from pig kidney LLC-PK1)
T2 sequence (P08183 whole entry): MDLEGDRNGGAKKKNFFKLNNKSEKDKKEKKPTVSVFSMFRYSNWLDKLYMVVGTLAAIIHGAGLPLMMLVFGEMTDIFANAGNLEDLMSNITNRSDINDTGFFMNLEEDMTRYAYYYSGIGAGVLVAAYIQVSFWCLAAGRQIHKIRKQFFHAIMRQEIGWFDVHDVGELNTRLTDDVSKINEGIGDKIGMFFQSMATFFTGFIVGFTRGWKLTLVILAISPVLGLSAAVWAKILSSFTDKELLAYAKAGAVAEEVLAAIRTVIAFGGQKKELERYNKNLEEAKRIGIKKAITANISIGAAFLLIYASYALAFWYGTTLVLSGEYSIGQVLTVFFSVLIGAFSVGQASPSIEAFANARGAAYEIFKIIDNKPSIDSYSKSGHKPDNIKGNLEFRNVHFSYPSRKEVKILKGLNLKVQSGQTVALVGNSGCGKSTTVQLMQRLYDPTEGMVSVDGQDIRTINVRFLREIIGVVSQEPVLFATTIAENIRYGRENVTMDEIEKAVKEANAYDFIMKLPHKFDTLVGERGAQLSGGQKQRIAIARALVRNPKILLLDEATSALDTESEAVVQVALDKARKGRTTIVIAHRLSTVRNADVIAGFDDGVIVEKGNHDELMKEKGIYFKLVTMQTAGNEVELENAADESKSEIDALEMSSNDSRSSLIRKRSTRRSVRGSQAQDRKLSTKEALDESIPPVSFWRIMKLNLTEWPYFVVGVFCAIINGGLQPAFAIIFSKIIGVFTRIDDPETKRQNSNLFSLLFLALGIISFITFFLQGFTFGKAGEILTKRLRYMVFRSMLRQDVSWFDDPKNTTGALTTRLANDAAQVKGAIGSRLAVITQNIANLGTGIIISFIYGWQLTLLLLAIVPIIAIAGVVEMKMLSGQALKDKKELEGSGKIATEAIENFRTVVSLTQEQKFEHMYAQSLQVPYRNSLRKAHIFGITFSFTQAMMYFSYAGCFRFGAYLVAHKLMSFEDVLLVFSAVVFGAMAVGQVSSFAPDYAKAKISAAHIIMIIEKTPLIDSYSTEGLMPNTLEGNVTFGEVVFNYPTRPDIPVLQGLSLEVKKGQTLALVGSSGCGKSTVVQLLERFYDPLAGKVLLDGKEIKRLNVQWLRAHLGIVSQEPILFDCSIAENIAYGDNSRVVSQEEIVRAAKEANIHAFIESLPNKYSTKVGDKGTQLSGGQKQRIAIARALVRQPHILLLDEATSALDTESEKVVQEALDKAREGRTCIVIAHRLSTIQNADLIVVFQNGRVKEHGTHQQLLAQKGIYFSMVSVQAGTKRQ
Format: in vitro ADME
From the text: In order that drugs acting on the central nervous system will develop their efficacy, their passage from the blood to the brain is generally important. While various efflux transporters are present at the blood-brain barrier to control this passage of drugs, P-glylcoprotein (P-gp) is a typical example and inhibits the passage to the brain of any drugs that serve as the substrate for P-gp. Therefore, in the development of pharmaceuticals, nonrecognizability of a candidate drug as the substrate for P-gp is the key to its passage to the brain.
A test for recognizability of P-gp substrate was performed in accordance with a modified version of the methods described in J Pharmacol. Exp. Ther. (1992) Vol. 263, No. 2, 840-845 and J Biol. Chem. (1992) Vol. 267, No. 34, 24248-24252. To be more specific, LLC-GAS-COL 300 cells (Human MDR1 expressing system derived from pig kidney derived, cultured renal epithelial cell line LLC-PK1) were cultured for 4 days on a Transwell and replaced by a Hank's balanced salt solution (HBSS) in each well just before the test. A solution of an assay compound (a DMSO solution of the compound as diluted with HBSS and adjusted to a final concentration of 10 μM) was added to the donor side of the LLC-GAS-COL 300 cells and a prescribed amount of HBSS was collected from the acceptor side at given time intervals and the concentration of the assay compound in the collected sample was measured by LC-MS/MS.
From the cumulative amount of the compound's permeation into the acceptor, the membrane permeability coefficient (×10^−6 cm/sec) was calculated for each of apical→basal mode and basal→apical mode and the recognizability of P-gp substrate was assessed in terms of the ratio between the two modes (efflux ratio).

Q: Which “recognizability as P-gp substrate (from efflux ratio basal→apical / apical→basal)” value does the source give for CC(C)N(Cc1ccc(F)c(-c2ccc(F)nc2)c1)C(=O)c1cn(C)cn1 [Compound 9] here?
A: not recognizable as the substrate for P-gp

Q: Which “recognizability as P-gp substrate (from efflux ratio basal→apical / apical→basal)” value does the source give for CC(C)N(Cc1ccc(F)c(-c2ccccn2)c1)C(=O)c1cn(C)cn1 [Compound 14] here?
A: not recognizable as the substrate for P-gp

Q: CC(C)N(Cc1ccc(F)c(-c2cncc(F)c2)c1)C(=O)c1cn(C)cn1 [Compound 15] was tested. Which “recognizability as P-gp substrate (from efflux ratio basal→apical / apical→basal)” value did it give?
A: not recognizable as the substrate for P-gp

Q: CC(C)N(Cc1ccnc(-c2ccc(OC(F)(F)F)cc2)c1)C(=O)c1cn(C)cn1 [Compound 30] was tested. Which “recognizability as P-gp substrate (from efflux ratio basal→apical / apical→basal)” value did it give?
A: not recognizable as the substrate for P-gp

Q: Which “recognizability as P-gp substrate (from efflux ratio basal→apical / apical→basal)” value does the source give for CC(C)N(Cc1ccnc(-c2ccc(F)cc2)c1)C(=O)c1cn(C)cn1 [Compound 31] here?
A: not recognizable as the substrate for P-gp

Q: With CC(C)N(Cc1ccnc(-c2ccccc2)c1)C(=O)c1cn(C)cn1 [Compound 36] as the compound, how does the “recognizability as P-gp substrate (from efflux ratio basal→apical / apical→basal)” value read?
A: not recognizable as the substrate for P-gp

Q: For CC(C)CN(Cc1ccnc(-c2ccc(F)cc2)c1)C(=O)c1cn(C)cn1 [Compound 54], which “recognizability as P-gp substrate (from efflux ratio basal→apical / apical→basal)” value is on record?
A: not recognizable as the substrate for P-gp

Q: CCn1cnc(C(=O)N(Cc2ccnc(-c3ccc(F)cc3)c2)C(C)C)c1 [Compound 56] was tested. Which “recognizability as P-gp substrate (from efflux ratio basal→apical / apical→basal)” value did it give?
A: not recognizable as the substrate for P-gp

Q: CC(C)N(Cc1ccnc(-c2cc(F)cc(F)c2)c1)C(=O)c1cn(C)cn1 [Compound 62] was tested. Which “recognizability as P-gp substrate (from efflux ratio basal→apical / apical→basal)” value did it give?
A: not recognizable as the substrate for P-gp

Q: Which “recognizability as P-gp substrate (from efflux ratio basal→apical / apical→basal)” value does the source give for CC(C)N(Cc1ccnc(-c2ccc(Cl)cc2)c1)C(=O)c1cn(C)cn1 [Compound 69] here?
A: not recognizable as the substrate for P-gp

Q: Which “recognizability as P-gp substrate (from efflux ratio basal→apical / apical→basal)” value does the source give for CC(C)N(Cc1ccc(F)c(-n2cccn2)c1)C(=O)c1cn(C)cn1 [Compound 73] here?
A: not recognizable as the substrate for P-gp

Q: For CC(C)N(Cc1ccnc(-c2ccc(OC(F)F)cc2)c1)C(=O)c1cn(C)cn1 [Compound 124], which “recognizability as P-gp substrate (from efflux ratio basal→apical / apical→basal)” value is on record?
A: not recognizable as the substrate for P-gp

Q: Which “recognizability as P-gp substrate (from efflux ratio basal→apical / apical→basal)” value does the source give for CN(C)c1ccc(-c2cc(CN(C(=O)c3cn(C)cn3)C3CCC3)ccc2F)cn1 [Compound 158] here?
A: not recognizable as the substrate for P-gp

Q: Which “recognizability as P-gp substrate (from efflux ratio basal→apical / apical→basal)” value does the source give for COCCN(Cc1ccnc(-c2cccc(OC(F)(F)F)c2)c1)C(=O)c1cn(C)cn1 [Compound 198] here?
A: not recognizable as the substrate for P-gp

Source: US8729271B2, “Glycine transporter inhibiting substances” (Taisho Pharmaceutical Co., Ltd, priority 2010, dated 2014)
